{
  "source": "BindingDB's records for PubMed 8627566",
  "about": "(Hoechst Marion Roussel, 1996)",
  "key": {"Substance-K receptor [1]": {"target": "T1, Substance-K receptor (Homo sapiens, UniProt P21452)", "T1 sequence (P21452 whole entry)": "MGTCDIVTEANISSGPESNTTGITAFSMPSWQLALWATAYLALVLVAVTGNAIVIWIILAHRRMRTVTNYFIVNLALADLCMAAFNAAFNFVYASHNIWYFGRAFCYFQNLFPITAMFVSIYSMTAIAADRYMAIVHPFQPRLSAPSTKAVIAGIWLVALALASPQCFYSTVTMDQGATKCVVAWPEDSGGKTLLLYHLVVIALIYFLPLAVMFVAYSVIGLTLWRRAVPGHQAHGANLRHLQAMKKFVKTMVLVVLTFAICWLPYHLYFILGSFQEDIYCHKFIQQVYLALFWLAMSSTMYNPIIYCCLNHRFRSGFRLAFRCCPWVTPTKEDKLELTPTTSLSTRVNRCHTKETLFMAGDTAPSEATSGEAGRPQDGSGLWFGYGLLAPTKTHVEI"}, "Substance-P receptor [2]": {"target": "Substance-P receptor (Cavia porcellus, UniProt P30547)", "sequence (P30547 whole entry)": "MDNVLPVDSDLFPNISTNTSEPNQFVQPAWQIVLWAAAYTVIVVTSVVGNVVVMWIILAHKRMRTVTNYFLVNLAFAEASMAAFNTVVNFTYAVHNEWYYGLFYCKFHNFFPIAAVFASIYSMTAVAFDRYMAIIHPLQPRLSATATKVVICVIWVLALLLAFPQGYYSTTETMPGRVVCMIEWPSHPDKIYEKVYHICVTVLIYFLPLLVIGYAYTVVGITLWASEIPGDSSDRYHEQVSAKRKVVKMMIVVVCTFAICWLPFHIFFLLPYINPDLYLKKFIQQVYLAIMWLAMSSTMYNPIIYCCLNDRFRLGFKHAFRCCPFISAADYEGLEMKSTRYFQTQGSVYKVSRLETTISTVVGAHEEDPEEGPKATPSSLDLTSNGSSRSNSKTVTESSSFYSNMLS"}, "Substance-P receptor [3]": {"target": "Substance-P receptor (Homo sapiens, UniProt P25103)", "sequence (P25103 whole entry)": "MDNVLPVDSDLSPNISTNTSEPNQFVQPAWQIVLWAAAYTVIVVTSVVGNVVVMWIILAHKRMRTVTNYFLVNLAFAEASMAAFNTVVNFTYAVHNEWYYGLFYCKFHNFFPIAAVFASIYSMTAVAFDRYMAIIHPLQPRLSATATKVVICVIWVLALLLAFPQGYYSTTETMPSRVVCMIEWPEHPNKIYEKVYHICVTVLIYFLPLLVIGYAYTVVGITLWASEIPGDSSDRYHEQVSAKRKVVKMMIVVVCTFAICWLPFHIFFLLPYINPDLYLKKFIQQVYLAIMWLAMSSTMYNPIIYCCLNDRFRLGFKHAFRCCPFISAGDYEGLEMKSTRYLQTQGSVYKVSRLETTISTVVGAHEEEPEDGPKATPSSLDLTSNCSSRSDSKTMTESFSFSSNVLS"}, "Substance-K receptor [4]": {"target": "T2, Substance-K receptor (Bos taurus, UniProt P05363)", "T2 sequence (P05363 whole entry)": "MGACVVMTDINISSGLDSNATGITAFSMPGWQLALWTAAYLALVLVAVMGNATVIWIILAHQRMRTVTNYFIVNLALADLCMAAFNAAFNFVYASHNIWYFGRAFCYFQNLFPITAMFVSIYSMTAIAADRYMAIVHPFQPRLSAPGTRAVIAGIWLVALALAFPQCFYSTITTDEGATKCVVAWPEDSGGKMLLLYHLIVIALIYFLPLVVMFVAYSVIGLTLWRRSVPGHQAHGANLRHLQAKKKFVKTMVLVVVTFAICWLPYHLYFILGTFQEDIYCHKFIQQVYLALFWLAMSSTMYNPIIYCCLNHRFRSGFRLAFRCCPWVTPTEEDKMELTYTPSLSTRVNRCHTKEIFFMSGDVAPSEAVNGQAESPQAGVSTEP"}, "Substance-K receptor [5]": {"target": "T3, Substance-K receptor (Mesocricetus auratus, UniProt P51144)", "T3 sequence (P51144 whole entry)": "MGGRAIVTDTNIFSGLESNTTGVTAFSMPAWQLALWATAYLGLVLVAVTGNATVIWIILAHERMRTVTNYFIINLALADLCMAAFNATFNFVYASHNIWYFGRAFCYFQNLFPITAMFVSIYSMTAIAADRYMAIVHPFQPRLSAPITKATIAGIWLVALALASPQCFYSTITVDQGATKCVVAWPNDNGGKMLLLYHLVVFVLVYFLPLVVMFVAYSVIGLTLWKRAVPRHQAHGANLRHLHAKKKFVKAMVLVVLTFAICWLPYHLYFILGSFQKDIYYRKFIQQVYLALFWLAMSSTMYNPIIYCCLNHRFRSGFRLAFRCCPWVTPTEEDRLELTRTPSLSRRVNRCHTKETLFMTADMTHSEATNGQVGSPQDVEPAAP"}, "Substance-P receptor [6]": {"target": "Substance-P receptor (Rattus norvegicus, UniProt P14600)", "sequence (P14600 whole entry)": "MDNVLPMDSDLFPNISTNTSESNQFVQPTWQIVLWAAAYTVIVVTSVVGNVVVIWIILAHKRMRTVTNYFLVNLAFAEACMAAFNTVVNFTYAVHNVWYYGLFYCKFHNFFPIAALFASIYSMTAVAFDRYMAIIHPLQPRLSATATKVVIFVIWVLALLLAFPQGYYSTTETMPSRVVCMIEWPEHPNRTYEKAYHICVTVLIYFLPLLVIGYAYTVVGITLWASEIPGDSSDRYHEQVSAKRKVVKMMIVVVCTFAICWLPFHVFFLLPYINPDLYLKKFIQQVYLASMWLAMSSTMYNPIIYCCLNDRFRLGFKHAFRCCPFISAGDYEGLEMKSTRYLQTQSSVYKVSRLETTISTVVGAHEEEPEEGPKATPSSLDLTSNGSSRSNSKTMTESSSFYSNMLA"}, "Neuromedin-K receptor": {"target": "T4, Neuromedin-K receptor (Cavia porcellus, UniProt P30098)", "T4 sequence (P30098 whole entry)": "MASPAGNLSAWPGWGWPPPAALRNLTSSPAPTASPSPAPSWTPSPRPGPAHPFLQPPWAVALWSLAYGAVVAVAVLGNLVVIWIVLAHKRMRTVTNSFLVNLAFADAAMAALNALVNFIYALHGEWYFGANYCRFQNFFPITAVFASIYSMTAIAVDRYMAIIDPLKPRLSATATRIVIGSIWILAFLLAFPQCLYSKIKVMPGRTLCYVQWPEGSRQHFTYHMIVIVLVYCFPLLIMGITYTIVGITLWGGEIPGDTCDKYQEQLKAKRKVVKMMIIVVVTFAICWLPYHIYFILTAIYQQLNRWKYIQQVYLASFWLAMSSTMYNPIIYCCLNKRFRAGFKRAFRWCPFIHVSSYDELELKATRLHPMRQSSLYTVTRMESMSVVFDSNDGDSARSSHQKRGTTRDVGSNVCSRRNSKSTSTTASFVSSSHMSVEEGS"}},
  "note": "Starred links: 1 amine or outer side, 2 acyl side, 3 side chain; linkers in the order of their positions; H or OH if unused. Positions of bridges follow the written chain, without caps; N, C: chain ends. Non-standard residues stand in square brackets, D forms with d. Residues, ends and D or L forms follow the SMILES beside them. *: point of attachment. X2 = CN(C(=Cc1ccc(O)cc1)C(=O)[*:2])[*:1]; X1 = CCCCCc1ccccc1CCC(=O)*",
  "data": [
    {"molecule": "COc1cc(C(=O)N2CC[C@@](CCN3CCC(C(N)=O)(c4ccccc4)CC3)(c3ccc(Cl)c(Cl)c3)C2)cc(OC)c1OC", "note": "[MDL 105,212A (R)-enantiomer]", "values": [
      {"measurement": "Ki", "setting": "Substance-K receptor [1]", "result": 7.93, "unit": "nM"},
      {"measurement": "Ki", "setting": "Substance-P receptor [2]", "result": 2.99, "unit": "nM"},
      {"measurement": "Ki", "setting": "Substance-P receptor [3]", "result": 3.69, "unit": "nM"},
      {"measurement": "Ki", "setting": "Substance-K receptor [4]", "result": 8.4, "unit": "nM"}
    ]},
    {"molecule": "CSCC[C@H](NC(=O)[C@H](CC(C)C)NC(=O)CNC(=O)[C@@H](NC(=O)[C@H](Cc1ccccc1)NC(=O)[C@H](CO)NC(=O)[C@H](CC(=O)O)NC(=O)[C@@H](NC(=O)[C@H](CCCCN)NC(=O)[C@@H](N)Cc1cnc[nH]1)[C@@H](C)O)C(C)C)C(N)=O", "note": "[Neurokinin alpha]", "values": [
      {"measurement": "Ki", "setting": "Substance-K receptor [5]", "result": 1.8, "unit": "nM"}
    ]},
    {"molecule": "COc1cc(C(=O)N2CC[C@@](CCN3CCC(C(N)=O)(c4ccccc4)CC3)(c3ccc(Cl)c(Cl)c3)C2)cc(OC)c1OC", "values": [
      {"measurement": "Ki", "setting": "Substance-K receptor [1]", "result": 8.4, "unit": "nM"},
      {"measurement": "Ki", "setting": "Substance-P receptor [2]", "result": 2.12, "unit": "nM"},
      {"measurement": "Ki", "setting": "Substance-P receptor [3]", "result": 3.11, "unit": "nM"},
      {"measurement": "Ki", "setting": "Substance-P receptor [6]", "result": 408, "unit": "nM"},
      {"measurement": "Ki", "setting": "Neuromedin-K receptor", "result": 21, "unit": "nM"},
      {"measurement": "Ki", "setting": "Substance-K receptor [5]", "result": 6.98, "unit": "nM"},
      {"measurement": "Ki", "setting": "Substance-K receptor [4]", "result": 8.49, "unit": "nM"}
    ]},
    {"molecule": "CCCCCc1ccccc1CCC(=O)NC1C(=O)N(C)C(=Cc2ccc(O)cc2)C(=O)NC(CC(C)C)C(=O)NC(Cc2ccccc2)C(=O)NC(C(C)O)C(=O)NC(CC(N)=O)C(=O)NC(CO)C(=O)OC1C", "note": "(stereo not given) [CAS_6437864] (X1-T[X2]LFTNS; ester 1-C; configuration not given here)", "values": [
      {"measurement": "Ki", "setting": "Substance-K receptor [1]", "result": 434, "unit": "nM"},
      {"measurement": "Ki", "setting": "Substance-P receptor [2]", "result": 98.7, "unit": "nM"},
      {"measurement": "Ki", "setting": "Substance-P receptor [3]", "result": 215, "unit": "nM"},
      {"measurement": "Ki", "setting": "Substance-P receptor [6]", "result": 228, "unit": "nM"},
      {"measurement": "Ki", "setting": "Neuromedin-K receptor", "result": 3550, "unit": "nM"},
      {"measurement": "Ki", "setting": "Substance-K receptor [5]", "result": 3590, "unit": "nM"},
      {"measurement": "Ki", "setting": "Substance-K receptor [4]", "result": 311, "unit": "nM"}
    ]},
    {"molecule": "COc1ccccc1CC(=N)N1C[C@@H]2C(=O)CCC(c3ccccc3)(c3ccccc3)[C@@H]2C1", "note": "[RP-67580]", "values": [
      {"measurement": "Ki", "setting": "Substance-P receptor [2]", "result": 36, "unit": "nM"},
      {"measurement": "Ki", "setting": "Substance-P receptor [6]", "result": 8.29, "unit": "nM"}
    ]},
    {"molecule": "COc1ccccc1CN[C@H]1C2CCN(CC2)[C@H]1C(c1ccccc1)c1ccccc1", "values": [
      {"measurement": "Ki", "setting": "Substance-K receptor [1]", "result": "> 10000", "unit": "nM"},
      {"measurement": "Ki", "setting": "Neuromedin-K receptor", "result": "> 10000", "unit": "nM"}
    ]},
    {"molecule": "COc1cc(C(=O)N2CC[C@](CCN3CCC(C(N)=O)(c4ccccc4)CC3)(c3ccc(Cl)c(Cl)c3)C2)cc(OC)c1OC", "values": [
      {"measurement": "Ki", "setting": "Substance-K receptor [1]", "result": 21, "unit": "nM"},
      {"measurement": "Ki", "setting": "Substance-P receptor [2]", "result": 5.88, "unit": "nM"},
      {"measurement": "Ki", "setting": "Substance-P receptor [3]", "result": 7.07, "unit": "nM"},
      {"measurement": "Ki", "setting": "Neuromedin-K receptor", "result": 54.3, "unit": "nM"}
    ]},
    {"molecule": "CN(Cc1ccccc1)C(=O)[C@@H](Cc1ccc2ccccc2c1)NC(=O)C1C[C@@H](O)CN1C(=O)c1cn(C)c2ccccc12", "note": "(stereo not given in full) [FK 888]", "values": [
      {"measurement": "Ki", "setting": "Substance-K receptor [1]", "result": 1520, "unit": "nM"},
      {"measurement": "Ki", "setting": "Substance-P receptor [2]", "result": 3.13, "unit": "nM"},
      {"measurement": "Ki", "setting": "Substance-P receptor [3]", "result": 1.49, "unit": "nM"},
      {"measurement": "Ki", "setting": "Substance-P receptor [6]", "result": 2070, "unit": "nM"},
      {"measurement": "Ki", "setting": "Neuromedin-K receptor", "result": 5620, "unit": "nM"}
    ]},
    {"molecule": "COc1cc(C(=O)N2CC[C@](CCN3CCC(C(N)=O)(c4ccccc4)CC3)(c3ccc(Cl)c(Cl)c3)C2)cc(OC)c1OC", "note": "[1-{2-[(R)-3-(3,4-Dichloro-phenyl)-1-(3,4,5-trimethoxy-benzoyl)-pyrrolidin-3-yl]-ethyl}-4-phenyl-piperidine-4-carboxylic acid amide]", "values": [
      {"measurement": "Ki", "setting": "Substance-K receptor [1]", "result": 760, "unit": "nM"},
      {"measurement": "Ki", "setting": "Substance-P receptor [2]", "result": 183, "unit": "nM"},
      {"measurement": "Ki", "setting": "Substance-P receptor [3]", "result": 160, "unit": "nM"},
      {"measurement": "Ki", "setting": "Substance-P receptor [6]", "result": 2200, "unit": "nM"},
      {"measurement": "Ki", "setting": "Neuromedin-K receptor", "result": 2310, "unit": "nM"},
      {"measurement": "Ki", "setting": "Substance-K receptor [5]", "result": 711, "unit": "nM"},
      {"measurement": "Ki", "setting": "Substance-K receptor [4]", "result": 207, "unit": "nM"}
    ]},
    {"molecule": "CC(=O)NC1(c2ccccc2)CCN(CCC(CN(C)C(=O)c2ccccc2)c2ccc(Cl)c(Cl)c2)CC1", "note": "(stereo not given) [SR 48968]", "values": [
      {"measurement": "Ki", "setting": "Substance-K receptor [1]", "result": 0.44, "unit": "nM"},
      {"measurement": "Ki", "setting": "Substance-P receptor [2]", "result": 217, "unit": "nM"},
      {"measurement": "Ki", "setting": "Substance-P receptor [3]", "result": 593, "unit": "nM"},
      {"measurement": "Ki", "setting": "Neuromedin-K receptor", "result": 208, "unit": "nM"},
      {"measurement": "Ki", "setting": "Substance-K receptor [5]", "result": 7.32, "unit": "nM"},
      {"measurement": "Ki", "setting": "Substance-K receptor [4]", "result": 0.71, "unit": "nM"}
    ]}
  ]
}
